Consider four cell lines from the supplement of paper PMC10307832.

Assay in all cases: relative viability (nuclei count vs DMSO), 5 days (fraction); higher = more cells survive
Compound in experiment [1]: C[C@@H](N)c1ccc(C(=O)Nc2ccnc3[nH]ccc23)cc1 + C[C@@H](Oc1cc(-c2cnn(C3CCNCC3)c2)cnc1N)c1c(Cl)ccc(F)c1Cl [Crizotinib] (partner 1 µM)
In outline: (§1)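 Lung cancer cell lines, seeded in 1536-well plates, were treated the following day by pin tool with a single drug or with five library-drug doses (not always all listed) in √10 steps on top of a fixed anchor-drug dose. Cells were fixed and nuclei stained in one step after 5 days, and nuclei were counted. Relative viability is the nuclei count for treated wells divided by that for vehicle wells, reported as medians of duplicate plates.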

Compound in the experiment “Tanzisertib + Alpelisib”: O[C@H]1CC[C@H](Nc2ncc3nc(Nc4c(F)cc(F)cc4F)n([C@H]4CCOC4)c3n2)CC1 [Tanzisertib] + Cc1nc(NC(=O)N2CCC[C@H]2C(N)=O)sc1-c1ccnc(C(C)(C)C(F)(F)F)c1 [Alpelisib] (partner 2 µM)
In outline: as §1

Compound in experiment [2]: C[C@@H](N)c1ccc(C(=O)Nc2ccnc3[nH]ccc23)cc1 + Cc1nc(NC(=O)N2CCC[C@H]2C(N)=O)sc1-c1ccnc(C(C)(C)C(F)(F)F)c1 [Alpelisib] (partner 2 µM)
In a few lines: as §1

Compound in experiment [3]: C1CNCCC1C2=CC(=NN2)C3=CC=NC=C3 + Cc1nc(NC(=O)N2CCC[C@H]2C(N)=O)sc1-c1ccnc(C(C)(C)C(F)(F)F)c1 [Alpelisib] (partner 2 µM)
In outline: as §1

As for RERF-LC-KJ, the relative viability is 0.808 in experiment [1] (first compound 0.04 µM); 0.893 in experiment [1] (first compound 0.1265 µM); 0.788 in experiment [1] (first compound 0.4 µM); 0.858 in experiment [1] (first compound 1.265 µM); 0.684 in experiment [1] (first compound 4 µM); 0.819 with Tanzisertib + Alpelisib (first compound 0.08 µM). In addition, the relative viability with Tanzisertib + Alpelisib (first compound 0.253 µM) was 0.754; with Tanzisertib + Alpelisib (first compound 0.8 µM) it was 0.918; with Tanzisertib + Alpelisib (first compound 2.53 µM), 0.777; with Tanzisertib + Alpelisib (first compound 8 µM) it was 0.719; in experiment [2] (first compound 0.04 µM), 0.899; in experiment [2] (first compound 0.1265 µM) it was 0.939. Besides, the relative viability in experiment [2] (first compound 0.4 µM) stood at 0.809; in experiment [2] (first compound 1.265 µM), 0.945; in experiment [2] (first compound 4 µM), 0.851; in experiment [3] (first compound 0.08 µM), 0.803; in experiment [3] (first compound 0.8 µM), 0.709; in experiment [3] (first compound 2.53 µM) it was 0.963. For the same cell line, the relative viability in experiment [3] (first compound 8 µM) was 0.89.
As to SK-LU-1, the relative viability in experiment [1] (first compound 0.04 µM) is 0.926; in experiment [1] (first compound 0.1265 µM) it was 0.964; in experiment [1] (first compound 0.4 µM), 0.779; in experiment [1] (first compound 1.265 µM), 0.757; in experiment [1] (first compound 4 µM), 0.5; with Tanzisertib + Alpelisib (first compound 0.08 µM), 1.15. Further, the relative viability in the experiment with Tanzisertib + Alpelisib (first compound 0.253 µM) worked out at 0.976; with Tanzisertib + Alpelisib (first compound 0.8 µM) it was 1.12; with Tanzisertib + Alpelisib (first compound 2.53 µM), 1.23; with Tanzisertib + Alpelisib (first compound 8 µM), 0.912; in experiment [2] (first compound 0.04 µM) it was 1.03; in experiment [2] (first compound 0.1265 µM), 0.973. In addition, the relative viability was found to be 0.986 in experiment [2] (first compound 0.4 µM); 0.888 in experiment [2] (first compound 1.265 µM); 0.704 in experiment [2] (first compound 4 µM); 1.08 in experiment [3] (first compound 0.08 µM); 1.06 in experiment [3] (first compound 0.8 µM); 1.05 in experiment [3] (first compound 2.53 µM). In addition, in experiment [3] (first compound 8 µM), the relative viability turned out to be 0.942.
For the cell line SK-MES-1, the relative viability in experiment [1] (first compound 0.04 µM) was 1.01; in experiment [1] (first compound 0.1265 µM), 0.973; in experiment [1] (first compound 0.4 µM), 0.94; in experiment [1] (first compound 1.265 µM) it was 0.798; in experiment [1] (first compound 4 µM) it was 0.757; with Tanzisertib + Alpelisib (first compound 0.08 µM), 0.922. The relative viability with Tanzisertib + Alpelisib (first compound 0.253 µM) was determined as 0.904; with Tanzisertib + Alpelisib (first compound 0.8 µM) it was 0.951; with Tanzisertib + Alpelisib (first compound 2.53 µM), 0.921; in the experiment with Tanzisertib + Alpelisib (first compound 8 µM), 0.856; in experiment [2] (first compound 0.04 µM) it was 1; in experiment [2] (first compound 0.1265 µM), 0.986. For the same cell line, the relative viability in experiment [2] (first compound 0.4 µM) was determined as 1.01; in experiment [2] (first compound 1.265 µM), 0.786; in experiment [2] (first compound 4 µM) it was 0.834; in experiment [3] (first compound 0.08 µM) it was 0.961; in experiment [3] (first compound 0.8 µM) it was 0.688; in experiment [3] (first compound 2.53 µM), 0.903. For the same cell line, the relative viability in experiment [3] (first compound 8 µM) was found to be 0.885.
SW 1573: the relative viability in experiment [1] (first compound 0.04 µM) turned out to be 0.792; in experiment [1] (first compound 0.1265 µM), 0.816; in experiment [1] (first compound 0.4 µM) it was 0.777; in experiment [1] (first compound 1.265 µM), 0.65; in experiment [1] (first compound 4 µM) it was 0.765; with Tanzisertib + Alpelisib (first compound 0.08 µM), 0.823. Further, the relative viability came to 0.656 in the experiment with Tanzisertib + Alpelisib (first compound 0.253 µM); 0.735 with Tanzisertib + Alpelisib (first compound 0.8 µM); 0.81 with Tanzisertib + Alpelisib (first compound 2.53 µM); 0.578 in the experiment with Tanzisertib + Alpelisib (first compound 8 µM); 0.852 in experiment [2] (first compound 0.04 µM); 0.984 in experiment [2] (first compound 0.1265 µM). The relative viability is 0.832 in experiment [2] (first compound 0.4 µM); 0.563 in experiment [2] (first compound 1.265 µM); 0.509 in experiment [2] (first compound 4 µM); 0.722 in experiment [3] (first compound 0.08 µM); 0.625 in experiment [3] (first compound 0.8 µM); 0.774 in experiment [3] (first compound 2.53 µM). Also, in experiment [3] (first compound 8 µM), the relative viability worked out at 0.755.
